Test results as given in publication PMC9220351, “Evaluation of a Conformationally Constrained Indole Carboxamide as a Potential Efflux Pump Inhibitor in Pseudomonas aeruginosa” (Antibiotics, 2022).

How the values were obtained:
Format in all cases: cell-based, Pseudomonas aeruginosa
[1] = tested on: 300 P. aeruginosa clinical isolates from 63 countries; assay: Susceptibility study, IHMA panel
Description: First, 209 clinical isolates of P. aeruginosa were collected, unbiased of susceptibility, from three US hospitals by Micromyx (now part of Microbiologics; Kalamazoo, MI, USA). IHMA (Monthey, Switzerland) collected 300 P. aeruginosa clinical isolates, also unbiased of susceptibility, from the following 63 countries: Argentina, Australia, Belgium, Brazil, Canada, Chile, Colombia, Costa Rica, Croatia, Czech Republic, Denmark, Dominican Republic, Ecuador, France, Georgia, Germany, Greece, Guatemala, Hong Kong, Hungary, India, Ireland, Israel, Italy, Japan, Jordan, Kazakhstan, Kenya, South Korea, Kuwait, Latvia, Lebanon, Lithuania, Malaysia, Mexico, Morocco, Netherlands, New Zealand, Nigeria, Panama, Philippines, Poland, Portugal, Puerto Rico, Qatar, Romania, Russia, Saudi Arabia, Serbia, Slovenia, South Africa, Spain, Sweden, Switzerland, Taiwan, Thailand, Tunisia, Turkey, Ukraine, United Kingdom, United States, Venezuela, and Vietnam. Isolates came from the following types of infection: genitourinary (urine), gastrointestinal (stomach), gastrointestinal (pancreas), […] (wound), respiratory (sputum), […] (blood), respiratory (bronchoalveolar lavage), […] (burn), respiratory (endotracheal aspirate), bodily fluids (abscess/pus), […] (impetiginous lesions), gastrointestinal (abscess) and respiratory (bronchial brushing). CF patients were not excluded.
(§1) MIC assays were performed as described previously.

[2] = tested on: 34 MDR P. aeruginosa clinical isolates (CDC & FDA AR Isolate Bank); assay: microbe, parasite or virus in culture; conditions: for Levofloxacin MIC fold difference: + labelled EPI […] (TXA09155 head: 50 µg/mL); for Levofloxacin MIC: alone or + labelled EPI […] (TXA09155 head: 50 µg/mL)
Description: P. aeruginosa ATCC 27853 was obtained from the American Type Culture Collection (ATCC; Manassas, VA, USA). P. aeruginosa multidrug-resistant isolates were obtained from the CDC and FDA Antibiotic Resistance Isolate Bank (Atlanta, GA, USA). P. aeruginosa DA7232 (gyrA-T83I, parC-S80L) was a kind gift from Prof. Dan I. Andersson, Uppsala University, Uppsala, Sweden, and has been characterized elsewhere. P. aeruginosa strains K767 (WT), K1455 (mexAB-oprM overexpressed), K2415 (mexXY-oprM overexpressed), and K3698 (oprM∆) were obtained from Prof. Keith Poole, Queen’s University, Kingston, Ontario, Canada and have been characterized elsewhere. Bacterial cells were grown in cation-adjusted Mueller Hinton (CAMH) media, brain heart infusion broth (BHI), or tryptic soy agar (TSA) plates were all obtained from Becton, Dickinson, and Company (BD; Franklin Lakes, NJ, USA). […] Azithromycin was purchased from Tokyo Chemical Industry (Portland, OR, USA). […] Ethidium bromide (EtBr) and glucose were purchased from VWR (Radnor, PA, USA). MC-04,124 and TXA01182 were synthesized at TAXIS Pharmaceuticals. Carbonyl cyanide 3-chlorophenylhydrazone (CCCP) was purchased from Enzo Life Sciences (Farmingdale, NY, USA). DiOC2 (3) and propidium iodide were obtained from Thermo Fisher Scientific (Waltham, MA, USA).
as §1

[3] = tested on: P. aeruginosa ATCC 27853
Description: All resistant colonies were verified by determining the MIC to TXA09155. […] This two-component system regulates the expression of more than 100 genes in P. aeruginosa, including genes that code for efflux components (mexX), and plays a role in the resistance to cationic antimicrobial peptides and aminoglycoside antibiotics.
The frequency of resistance studies was carried out as described previously.

[4] = TXA09155 fixed […], 300 isolates

In the case of Cl.NC[C@@H]1CN[C@H](CNC(=O)c2cc3ccc(-c4ccc(F)cc4)cc3[nH]2)C1 [TXA09155, N-(((2S,4R)-4-(aminomethyl)pyrrolidine-2-yl)methyl)-6-(4-fluorophenyl)-1H-indole-2-carboxamide hydrochloride salt], the “levofloxacin MIC50 in presence of TXA09155” value [1, 4] is reported as 0.06 µg/mL, the “levofloxacin MIC90 in presence of TXA09155” value [1, 4] is reported as 8 µg/mL and the “Cumulative Susceptibility % Strains at 1” value ([1]; concentration 1 µg/ml, n: 300) is reported as 2%. For the same molecule, the “Cumulative Susceptibility % Strains at 2” value ([1]; concentration 2 µg/ml, n: 300) was 6%, the “Cumulative Susceptibility % Strains at 4” value ([1]; concentration 4 µg/ml, n: 300) was 7% and the “Cumulative Susceptibility % Strains at 8” value ([1]; concentration 8 µg/ml, n: 300) was 7%. For the same molecule, the “Cumulative Susceptibility % Strains at 16” value ([1]; concentration 16 µg/ml, n: 300) was 9%, the “Cumulative Susceptibility % Strains at 32” value ([1]; concentration 32 µg/ml, n: 300) was 13% and the “Cumulative Susceptibility % Strains at >32” value ([1]; concentration >32 µg/ml, n: 300) was 100%. For the same molecule, the “levofloxacin MIC50 in presence of EPI” value ([2]; EPI (label) fixed […], 34 MDR isolates, levofloxacin alone 32) was 2 µg/mL, the “levofloxacin MIC90 in presence of EPI” value ([2]; EPI (label) fixed […], 34 MDR isolates, levofloxacin alone 64) was 8 µg/mL and the “Levofloxacin MIC fold difference” value ([2]; strain AR-0229) was 32. The “Levofloxacin MIC” value ([2]; strain AR-0229) was 2 µg/mL, the “Levofloxacin MIC fold difference” value ([2]; strain AR-0230) was 8 and the “Levofloxacin MIC” value ([2]; strain AR-0230) was 8 µg/mL. For the same molecule, the “Levofloxacin MIC fold difference” value ([2]; strain AR-0231) was 4, the “Levofloxacin MIC” value ([2]; strain AR-0231) was 16 µg/mL and the “Levofloxacin MIC fold difference” value ([2]; strain AR-0232) was 16. The “Levofloxacin MIC” value ([2]; strain AR-0232) was 0.5 µg/mL, the “Levofloxacin MIC fold difference” value ([2]; strain AR-0233) was 32 and the “Levofloxacin MIC” value ([2]; strain AR-0233) was 0.125 µg/mL. For the same molecule, the “Levofloxacin MIC fold difference” value ([2]; strain AR-0234) was 16, the “Levofloxacin MIC” value ([2]; strain AR-0234) was 0.5 µg/mL and the “Levofloxacin MIC fold difference” value ([2]; strain AR-0236) was 8. The “Levofloxacin MIC” value ([2]; strain AR-0236) was 4 µg/mL, the “Levofloxacin MIC fold difference” value ([2]; strain AR-0239) was 16 and the “Levofloxacin MIC” value ([2]; strain AR-0239) was 4 µg/mL. For the same molecule, the “Levofloxacin MIC fold difference” value ([2]; strain AR-0240) was 16, the “Levofloxacin MIC” value ([2]; strain AR-0240) was 8 µg/mL and the “Levofloxacin MIC fold difference” value ([2]; strain AR-0241) was 8. The “Levofloxacin MIC” value ([2]; strain AR-0241) was 8 µg/mL, the “Levofloxacin MIC fold difference” value ([2]; strain AR-0242) was 16 and the “Levofloxacin MIC” value ([2]; strain AR-0242) was 1 µg/mL. The “Levofloxacin MIC fold difference” value ([2]; strain AR-0244) was 64, the “Levofloxacin MIC” value ([2]; strain AR-0244) was 2 µg/mL and the “Levofloxacin MIC fold difference” value ([2]; strain AR-0245) was 8. For the same molecule, the “Levofloxacin MIC” value ([2]; strain AR-0245) was 16 µg/mL, the “Levofloxacin MIC fold difference” value ([2]; strain AR-0246) was 8 and the “Levofloxacin MIC” value ([2]; strain AR-0246) was 8 µg/mL. For the same molecule, the “Levofloxacin MIC fold difference” value ([2]; strain AR-0247) was 256, the “Levofloxacin MIC” value ([2]; strain AR-0247) was no more than 0.008 µg/mL and the “Levofloxacin MIC fold difference” value ([2]; strain AR-0248) was 32. The “Levofloxacin MIC” value ([2]; strain AR-0248) was 0.5 µg/mL, the “Levofloxacin MIC fold difference” value ([2]; strain AR-0249) was 32 and the “Levofloxacin MIC” value ([2]; strain AR-0249) was 2 µg/mL. The “Levofloxacin MIC fold difference” value ([2]; strain AR-0250) was 8, the “Levofloxacin MIC” value ([2]; strain AR-0250) was 8 µg/mL and the “Levofloxacin MIC fold difference” value ([2]; strain AR-0252) was 64. For the same molecule, the “Levofloxacin MIC” value ([2]; strain AR-0252) was 0.5 µg/mL, the “Levofloxacin MIC fold difference” value ([2]; strain AR-0253) was 64 and the “Levofloxacin MIC” value ([2]; strain AR-0253) was 0.031 µg/mL. For the same molecule, the “Levofloxacin MIC fold difference” value ([2]; strain AR-0256) was 16, the “Levofloxacin MIC” value ([2]; strain AR-0256) was 0.031 µg/mL and the “Levofloxacin MIC fold difference” value ([2]; strain AR-0258) was 8. For the same molecule, the “Levofloxacin MIC” value ([2]; strain AR-0258) was 0.062 µg/mL, the “Levofloxacin MIC fold difference” value ([2]; strain AR-0259) was 8 and the “Levofloxacin MIC” value ([2]; strain AR-0259) was 0.062 µg/mL. For the same molecule, the “Levofloxacin MIC fold difference” value ([2]; strain AR-0260) was 8, the “Levofloxacin MIC” value ([2]; strain AR-0260) was 8 µg/mL and the “Levofloxacin MIC fold difference” value ([2]; strain AR-0261) was 32. For the same molecule, the “Levofloxacin MIC” value ([2]; strain AR-0261) was 0.25 µg/mL, the “Levofloxacin MIC fold difference” value ([2]; strain AR-0262) was 64 and the “Levofloxacin MIC” value ([2]; strain AR-0262) was 0.063 µg/mL. The “Levofloxacin MIC fold difference” value ([2]; strain AR-0264) was 32, the “Levofloxacin MIC” value ([2]; strain AR-0264) was 1 µg/mL and the “Levofloxacin MIC fold difference” value ([2]; strain AR-0265) was 16. For the same molecule, the “Levofloxacin MIC” value ([2]; strain AR-0265) was 4 µg/mL, the “Levofloxacin MIC fold difference” value ([2]; strain AR-0266) was 16 and the “Levofloxacin MIC” value ([2]; strain AR-0266) was 2 µg/mL. For the same molecule, the “Levofloxacin MIC fold difference” value ([2]; strain AR-0267) was 64, the “Levofloxacin MIC” value ([2]; strain AR-0267) was 0.5 µg/mL and the “Levofloxacin MIC fold difference” value ([2]; strain AR-0269) was 16. The “Levofloxacin MIC” value ([2]; strain AR-0269) was 2 µg/mL, the “Levofloxacin MIC fold difference” value ([2]; strain AR-0270) was 64 and the “Levofloxacin MIC” value ([2]; strain AR-0270) was 0.5 µg/mL. For the same molecule, the “Levofloxacin MIC fold difference” value ([2]; strain AR-0271) was 8, the “Levofloxacin MIC” value ([2]; strain AR-0271) was 4 µg/mL and the “Levofloxacin MIC fold difference” value ([2]; strain AR-0272) was 8. For the same molecule, the “Levofloxacin MIC” value ([2]; strain AR-0272) was 2 µg/mL, the “fold reduction of the FoR to levofloxacin” value [3] was “more than 149 fold” and the “FoR, resistance to TXA09155 alone (1×-MIC)” value ([3]; 50 μg/mL) was 1.9 × 10^−3. The “FoR, resistance to TXA09155 alone (4×-MIC)” value ([3]; 200 μg/mL) was 1.40 × 10^−6.
